Laboratory results: patent publication US5055448A, “Linear derivatives of arginine vasopressin antagonists” (Medical College of Ohio, priority 1987, dated 1991)
Numbered stars: 1 amine (or outer) side, 2 acyl side, 3 side chain; on linkers, the order of the positions; unused ones are H or OH. Square brackets hold non-standard residues; d marks the D form. Peptide text beside a SMILES is read from it. * marks the point of attachment. Acetyl(1-adamantyl) = O=C(CC12CC3CC(CC(C3)C1)C2)*; Cyclohexylacetyl(1-SH) = O=C(CC1(S)CCCCC1)*; Ethylenediamine = C(CN[*:2])N[*:1]; Orn = NCCC[C@H](N)C(=O)O; Abu = CC[C@H](N)C(=O)O; X1 = CCC(S)(CC)CC(=O)*; Propionyl = CCC(=O)*

Tests used:
[1] = system: vasopressor response to arginine vasopressin; conditions: in vivo
Description: Antagonism to the vasopressor response was estimated in accordance with […] et al., J. Med. Chem., vol. 17 (1974) at 969. The values are expressed as pA2 values, defined as in Schild et al., Br. J. Pharmacol., vol. 2 (1947) at 189. Antagonistic potencies were determined and expressed as "effective doses" and pA2 values. The "effective dose" is defined as the dose (in nanomoles per kilogram) that reduces the response seen from 2x units of agonist injected 20 min after the dose of antagonist to the response with 1x units of agonist. Estimated in vivo "pA2 " values represent the negative logarithms of the effective doses, divided by the estimated volume of distribution (67 ml/kg).

[2] = system: antidiuretic response to arginine vasopressin; design: species or system rats; conditions: rat, in vivo
Description: Activity as antidiuretic agonists was determined by intravenous injection of the compounds being evaluated in ethanol-anesthesized water-loaded rats in accordance with Sawyer, Endocrinology, vol. 63 (1958) at 694. Antagonism of the antidiuretic response to subsequent injections of arginine vasopressin was tested by the method of Sawyer et al., Science, vol. 212 (1981) at 49. Antagonistic potencies were determined and expressed as "effective doses" and pA2 values. The "effective dose" is defined as the dose (in nanomoles per kilogram) that reduces the response seen from 2x units of agonist injected 20 min after the dose of antagonist to the response with 1x units of agonist. Estimated in vivo "pA2 " values represent the negative logarithms of the effective doses, divided by the estimated volume of distribution (67 ml/kg).

SMILES | Antivasopressor pA2 [1] | Antiantidiuretic pA2 [2]
CCOc1ccc(C[C@@H](NC(=O)CC23CC4CC(CC(C4)C2)C3)C(=O)N[C@@H](Cc2ccccc2)C(=O)N[C@H](C(=O)N[C@@H](CC(N)=O)C(=O)N[C@@H](CCCCN)C(=O)N2CCC[C@H]2C(=O)N[C@@H](CCCNC(=N)N)C(N)=O)C(C)C)cc1 [(1-adamantyl)acetyl-D-(O-ethyl)-tyrosyl-phenylalanyl-valyl-asaparaginyl-lysyl-prolyl-argininamide] ({Acetyl(1-adamantyl)}-[dY](Et)FVNKPR-NH2) | 8.02 ± 0.06 | 7.81 ± 0.08
CCOc1ccc(C[C@@H](NC(=O)CC23CC4CC(CC(C4)C2)C3)C(=O)N[C@@H](Cc2ccccc2)C(=O)N[C@H](C(=O)N[C@@H](CC(N)=O)C(=O)N[C@@H](CC)C(=O)N2CCC[C@H]2C(=O)N[C@H](CCCNC(=N)N)C(=O)N[C@@H](CCCNC(=N)N)C(N)=O)C(C)C)cc1 [(1-adamantyl)acetyl-D-(O-ethyl)tyrosyl-phenylalanyl-valyl-asparaginyl-(2-amino)butyryl-prolyl-D-arginyl-argininamide] ({Acetyl(1-adamantyl)}-[dY](Et)FVN[Abu]P[dR]R-NH2) | 7.49 ± 0.06 | 7.85 ± 0.08
CCOc1ccc(C[C@@H](NC(=O)CC23CC4CC(CC(C4)C2)C3)C(=O)N[C@@H](Cc2ccccc2)C(=O)N[C@H](C(=O)N[C@@H](CC(N)=O)C(=O)N[C@@H](CC)C(=O)N2CCC[C@H]2C(=O)N[C@@H](CCCNC(=N)N)C(N)=O)C(C)C)cc1 [(1-adamantyl)acetyl-D-(O-ethyl)tyrosyl-phenylalanyl-valyl-asparaginyl-(2-amino)butyryl-prolyl-argininamide] ({Acetyl(1-adamantyl)}-[dY](Et)FVN[Abu]PR-NH2) | 7.43 ± 0.06 | 7.20 ± 0.04
CCOc1ccc(C[C@@H](NC(=O)CC23CC4CC(CC(C4)C2)C3)C(=O)N[C@@H](Cc2ccccc2)C(=O)N[C@H](C(=O)N[C@@H](CC(N)=O)C(=O)N[C@@H](CC)C(=O)N2CCC[C@H]2C(=O)N[C@@H](CCCNC(=N)N)C(=O)NCCN)C(C)C)cc1 [(1-adamantyl)acetyl-D-(O-ethyl)tyrosyl-phenylalanyl-valyl-asparaginyl-(2-amino)butyryl-prolyl-arginine-N-(2-aminoethyl)amide] ({Acetyl(1-adamantyl)}-[dY](Et)FVN[Abu]PR-Ethylenediamine) | 7.33 ± 0.09 | 7.71 ± 0.09
CCOc1ccc(C[C@@H](NC(=O)CC23CC4CC(CC(C4)C2)C3)C(=O)N[C@@H](Cc2ccccc2)C(=O)N[C@H](C(=O)N[C@@H](CC(N)=O)C(=O)N[C@@H](CC)C(=O)N2CCC[C@H]2C(=O)N[C@@H](CCCNC(=N)N)C(=O)N[C@@H](C)C(N)=O)C(C)C)cc1 [(1-adamantyl)acetyl-D-(O-ethyl)tyrosyl-phenylalanyl-valyl-asparaginyl-(2-amino)butyryl-prolyl-arginyl-alaninamide] ({Acetyl(1-adamantyl)}-[dY](Et)FVN[Abu]PRA-NH2) | 7.18 ± 0.04 | 6.55 ± 0.04
CCOc1ccc(C[C@@H](NC(=O)CC23CC4CC(CC(C4)C2)C3)C(=O)N[C@@H](Cc2ccccc2)C(=O)N[C@H](C(=O)N[C@@H](CC(N)=O)C(=O)N[C@@H](CC)C(=O)N2CCC[C@H]2C(=O)N[C@@H](CCCNC(=N)N)C(=O)N[C@@H](CCCNC(=N)N)C(N)=O)C(C)C)cc1 [(1-adamantyl)acetyl-D-(O-ethyl)tyrosyl-phenylalanyl-valyl-asparaginyl-(2-amino)butyryl-prolyl-arginyl-argininamide] ({Acetyl(1-adamantyl)}-[dY](Et)FVN[Abu]PRR-NH2) | 7.75 ± 0.07 | 8.11 ± 0.07
CCOc1ccc(C[C@@H](NC(=O)CC23CC4CC(CC(C4)C2)C3)C(=O)N[C@@H](Cc2ccccc2)C(=O)N[C@H](C(=O)N[C@@H](CC(N)=O)C(=O)N[C@@H](CC)C(=O)N2CCC[C@H]2C(=O)N[C@@H](CCCNC(=N)N)C(=O)NCC(N)=O)C(C)C)cc1 [(1-adamantyl)acetyl-D-(O-ethyl)tyrosyl-phenylalanyl-valyl-asparaginyl-(2-amino)butyryl-prolyl-arginyl-glycinamide] ({Acetyl(1-adamantyl)}-[dY](Et)FVN[Abu]PRG-NH2) | 7.10 ± 0.07 | 7.50 ± 0.02
CCOc1ccc(C[C@@H](NC(=O)CC23CC4CC(CC(C4)C2)C3)C(=O)N[C@@H](Cc2ccccc2)C(=O)N[C@H](C(=O)N[C@@H](CC(N)=O)C(=O)N[C@@H](CCCNC(=N)N)C(=O)N2CCC[C@H]2C(=O)N[C@@H](CCCNC(=N)N)C(N)=O)C(C)C)cc1 [(1-adamantyl)acetyl-D-(O-ethyl)tyrosyl-phenylalanyl-valyl-asparaginyl-arginyl-prolyl-argininamide] ({Acetyl(1-adamantyl)}-[dY](Et)FVNRPR-NH2) | 8.01 ± 0.05 | 7.73 ± 0.08
CCOc1ccc(C[C@@H](NC(=O)CC23CC4CC(CC(C4)C2)C3)C(=O)N[C@@H](Cc2ccccc2)C(=O)N[C@H](C(=O)N[C@@H](CC(N)=O)C(=O)N[C@@H](CCCN)C(=O)N2CCC[C@H]2C(=O)N[C@@H](CCCNC(=N)N)C(N)=O)C(C)C)cc1 [(1-adamantyl)acetyl-D-(O-ethyl)tyrosyl-phenylalanyl-valyl-asparaginyl-ornithyl-prolyl-argininamide] ({Acetyl(1-adamantyl)}-[dY](Et)FVN[Orn]PR-NH2) | 7.33 ± 0.06 | 7.81 ± 0.10
CCOc1ccc(C[C@@H](NC(=O)CC2(S)CCCCC2)C(=O)N[C@@H](Cc2ccccc2)C(=O)N[C@H](C(=O)N[C@@H](CC(N)=O)C(=O)N[C@@H](CC)C(=O)N2CCC[C@H]2C(=O)N[C@@H](CCCNC(=N)N)C(=O)NCC(N)=O)C(C)C)cc1 [(1-mercaptocyclohexyl)acetyl-D-(O-ethyl)tyrosyl-phenylalanyl-valyl-asparaginyl-(2-amino)butyryl-prolyl-arginyl-glycinamide] ({Cyclohexylacetyl(1-SH)}-[dY](Et)FVN[Abu]PRG-NH2) | 7.71 ± 0.05 | 7.42 ± 0.05
CCOc1ccc(C[C@@H](NC(=O)CC2(S)CCCCC2)C(=O)N[C@@H](Cc2ccccc2)C(=O)N[C@H](C(=O)N[C@@H](CC(N)=O)C(=O)N[C@@H](CS)C(=O)N2CCC[C@H]2C(=O)N[C@@H](CCCNC(=N)N)C(=O)NCC(N)=O)C(C)C)cc1 [(1-mercaptocyclohexyl)acetyl-D-(O-ethyl)tyrosyl-phenylalanyl-valyl-asparaginyl-cysteinyl-prolyl-arginyl-glycinamide] ({Cyclohexylacetyl(1-SH)}-[dY](Et)FVNCPRG-NH2) | 7.51 ± 0.03 | 7.05 ± 0.08
CCOc1ccc(C[C@@H](NC(=O)CC(S)(CC)CC)C(=O)N[C@@H](Cc2ccccc2)C(=O)N[C@H](C(=O)N[C@@H](CC(N)=O)C(=O)N[C@@H](CC)C(=O)N2CCC[C@H]2C(=O)N[C@@H](CCCNC(=N)N)C(=O)NCC(N)=O)C(C)C)cc1 [(3-ethyl-3-mercapto)valeroyl-D-(O-ethyl)tyrosyl-phenylalanyl-valyl-asparaginyl-(2-amino)butyryl-prolyl-arginyl-glycinamide] (X1-[dY](Et)FVN[Abu]PRG-NH2) | 6.94 ± 0.04 | 7.09 ± 0.09
CCOc1ccc(C[C@@H](NC(=O)CC)C(=O)N[C@@H](Cc2ccccc2)C(=O)N[C@H](C(=O)N[C@@H](CC(N)=O)C(=O)N[C@@H](CC)C(=O)N2CCC[C@H]2C(=O)N[C@@H](CCCNC(=N)N)C(=O)N[C@@H](CCCNC(=N)N)C(N)=O)C(C)C)cc1 [propionyl-D-(O-ethyl)tyrosyl-phenylalanyl-valyl-asparaginyl-(2-amino)butyryl-prolyl-arginyl-argininamide] (Propionyl-[dY](Et)FVN[Abu]PRR-NH2) | 6.71 ± 0.09 | 7.74 ± 0.07
